Assay in all cases: relative viability (nuclei count vs DMSO), 5 days (fraction); higher = more cells survive
Compound in the assay “Linifanib + Palbociclib”: Cc1ccc(F)c(NC(=O)Nc2ccc(-c3cccc4[nH]nc(N)c34)cc2)c1 [Linifanib] + CC(=O)c1c(C)c2cnc(Nc3ccc(N4CCNCC4)cn3)nc2n(C2CCCC2)c1=O [Palbociclib] (partner 0.5 µM)
The method in brief: (§1)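 Dosing by pin tool came one day after lung cancer cell lines were seeded in 1536-well plates, using either one drug or a fixed anchor-drug dose plus five library-drug doses (not always all listed) in √10 steps. After 5 days, nuclei were counted on 4× images. Relative viability is treated-well nuclei count divided by vehicle-well nuclei count, and values are medians of duplicate plates.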

Compound in the assay “Linifanib + Alpelisib”: Cc1ccc(F)c(NC(=O)Nc2ccc(-c3cccc4[nH]nc(N)c34)cc2)c1 [Linifanib] + Cc1nc(NC(=O)N2CCC[C@H]2C(N)=O)sc1-c1ccnc(C(C)(C)C(F)(F)F)c1 [Alpelisib] (partner 2 µM)
The method in brief:
as §1

Compound in the assay “Linifanib + Pictilisib”: Cc1ccc(F)c(NC(=O)Nc2ccc(-c3cccc4[nH]nc(N)c34)cc2)c1 [Linifanib] + CS(=O)(=O)N1CCN(Cc2cc3nc(-c4cccc5[nH]ncc45)nc(N4CCOCC4)c3s2)CC1 [Pictilisib] (partner 1 µM)
The method in brief: as §1

Compound in the assay “Linifanib + Phenformin”: Cc1ccc(F)c(NC(=O)Nc2ccc(-c3cccc4[nH]nc(N)c34)cc2)c1 [Linifanib] + N=C(N)NC(=N)NCCc1ccccc1 [Phenformin] (partner 250 µM)
The method in brief:
as §1

Compound in the assay “Linifanib + Lapatinib”: Cc1ccc(F)c(NC(=O)Nc2ccc(-c3cccc4[nH]nc(N)c34)cc2)c1 [Linifanib] + CS(=O)(=O)CCNCc1ccc(-c2ccc3ncnc(Nc4ccc(OCc5cccc(F)c5)c(Cl)c4)c3c2)o1 [Lapatinib] (partner 2 µM)
The method in brief: as §1

Compound in the assay “Linifanib + Vorinostat”: Cc1ccc(F)c(NC(=O)Nc2ccc(-c3cccc4[nH]nc(N)c34)cc2)c1 [Linifanib] + O=C(CCCCCCC(=O)Nc1ccccc1)NO [Vorinostat] (partner 1 µM)
The method in brief: as §1

Consider EMC-BAC-2, for which the relative viability in the assay with Linifanib + Palbociclib (first compound 0.03162 µM) was determined as 0.542; with Linifanib + Palbociclib (first compound 0.1 µM), 0.562; with Linifanib + Palbociclib (first compound 0.3162 µM), 0.531; with Linifanib + Alpelisib (first compound 0.03162 µM) it was 0.778; with Linifanib + Alpelisib (first compound 0.1 µM), 0.792; with Linifanib + Alpelisib (first compound 0.3162 µM), 0.683. Besides, the relative viability with Linifanib + Pictilisib (first compound 0.03162 µM) was determined as 0.555; in the assay with Linifanib + Pictilisib (first compound 0.1 µM), 0.59; with Linifanib + Pictilisib (first compound 0.3162 µM), 0.523; in the assay with Linifanib + Phenformin (first compound 0.03162 µM) it was 0.625; with Linifanib + Phenformin (first compound 0.1 µM) it was 0.582; in the assay with Linifanib + Phenformin (first compound 0.3162 µM), 0.544. The relative viability in the assay with Linifanib + Lapatinib (first compound 0.03162 µM) is 0.901; in the assay with Linifanib + Lapatinib (first compound 0.1 µM), 0.992; in the assay with Linifanib + Lapatinib (first compound 0.3162 µM), 0.844; with Linifanib + Vorinostat (first compound 0.03162 µM) it was 0.47; in the assay with Linifanib + Vorinostat (first compound 0.1 µM), 0.465; with Linifanib + Vorinostat (first compound 0.3162 µM), 0.426.
As to EKVX, the relative viability with Linifanib + Palbociclib (first compound 0.03162 µM) was found to be 0.447; with Linifanib + Palbociclib (first compound 0.1 µM), 0.383; in the assay with Linifanib + Palbociclib (first compound 0.3162 µM) it was 0.415; in the assay with Linifanib + Alpelisib (first compound 0.03162 µM) it was 0.9; with Linifanib + Alpelisib (first compound 0.1 µM), 1.14; with Linifanib + Alpelisib (first compound 0.3162 µM) it was 0.831. The relative viability in the assay with Linifanib + Pictilisib (first compound 0.03162 µM) was determined as 0.508; in the assay with Linifanib + Pictilisib (first compound 0.1 µM) it was 0.512; in the assay with Linifanib + Pictilisib (first compound 0.3162 µM) it was 0.454; in the assay with Linifanib + Phenformin (first compound 0.03162 µM), 0.241; in the assay with Linifanib + Phenformin (first compound 0.1 µM) it was 0.25; with Linifanib + Phenformin (first compound 0.3162 µM), 0.194. The relative viability worked out at 0.209 with Linifanib + Lapatinib (first compound 0.03162 µM); 0.24 in the assay with Linifanib + Lapatinib (first compound 0.1 µM); 0.222 with Linifanib + Lapatinib (first compound 0.3162 µM); 0.731 in the assay with Linifanib + Vorinostat (first compound 0.03162 µM); 0.774 in the assay with Linifanib + Vorinostat (first compound 0.1 µM); 0.75 with Linifanib + Vorinostat (first compound 0.3162 µM).
Regarding NCI-H1651, the relative viability came out at 0.536 with Linifanib + Palbociclib (first compound 0.03162 µM); 0.527 with Linifanib + Palbociclib (first compound 0.1 µM); 0.487 with Linifanib + Palbociclib (first compound 0.3162 µM); 0.883 with Linifanib + Alpelisib (first compound 0.03162 µM); 0.838 in the assay with Linifanib + Alpelisib (first compound 0.1 µM); 0.996 with Linifanib + Alpelisib (first compound 0.3162 µM). Moreover, the relative viability with Linifanib + Pictilisib (first compound 0.03162 µM) worked out at 0.591; in the assay with Linifanib + Pictilisib (first compound 0.1 µM), 0.582; with Linifanib + Pictilisib (first compound 0.3162 µM), 0.355; with Linifanib + Phenformin (first compound 0.03162 µM), 0.314; in the assay with Linifanib + Phenformin (first compound 0.1 µM), 0.368; in the assay with Linifanib + Phenformin (first compound 0.3162 µM), 0.309. Also, the relative viability in the assay with Linifanib + Lapatinib (first compound 0.03162 µM) turned out to be 0.981; in the assay with Linifanib + Lapatinib (first compound 0.1 µM), 0.88; with Linifanib + Lapatinib (first compound 0.3162 µM) it was 0.817; in the assay with Linifanib + Vorinostat (first compound 0.03162 µM) it was 0.688; with Linifanib + Vorinostat (first compound 0.1 µM) it was 0.561; with Linifanib + Vorinostat (first compound 0.3162 µM), 0.573.
Consider LCLC-97TM1, for which the relative viability in the assay with Linifanib + Palbociclib (first compound 0.03162 µM) stood at 0.212; with Linifanib + Palbociclib (first compound 0.1 µM), 0.243; with Linifanib + Palbociclib (first compound 0.3162 µM), 0.196; with Linifanib + Alpelisib (first compound 0.03162 µM), 0.284; in the assay with Linifanib + Alpelisib (first compound 0.1 µM) it was 0.292; in the assay with Linifanib + Alpelisib (first compound 0.3162 µM), 0.246. The relative viability with Linifanib + Pictilisib (first compound 0.03162 µM) stood at 0.208; with Linifanib + Pictilisib (first compound 0.1 µM), 0.196; with Linifanib + Pictilisib (first compound 0.3162 µM), 0.169; with Linifanib + Phenformin (first compound 0.03162 µM), 0.423; with Linifanib + Phenformin (first compound 0.1 µM), 0.437; with Linifanib + Phenformin (first compound 0.3162 µM) it was 0.341. Further, the relative viability is 1.51 in the assay with Linifanib + Lapatinib (first compound 0.03162 µM); 0.984 in the assay with Linifanib + Lapatinib (first compound 0.1 µM); 0.858 with Linifanib + Lapatinib (first compound 0.3162 µM); 0.739 with Linifanib + Vorinostat (first compound 0.03162 µM); 0.807 in the assay with Linifanib + Vorinostat (first compound 0.1 µM); 0.603 in the assay with Linifanib + Vorinostat (first compound 0.3162 µM).
Turning to SW 1573, the relative viability is 0.367 in the assay with Linifanib + Palbociclib (first compound 0.03162 µM); 0.448 with Linifanib + Palbociclib (first compound 0.1 µM); 0.366 with Linifanib + Palbociclib (first compound 0.3162 µM); 0.609 in the assay with Linifanib + Alpelisib (first compound 0.03162 µM); 0.914 with Linifanib + Alpelisib (first compound 0.1 µM); 0.657 with Linifanib + Alpelisib (first compound 0.3162 µM). Moreover, the relative viability is 0.43 with Linifanib + Pictilisib (first compound 0.03162 µM); 0.517 with Linifanib + Pictilisib (first compound 0.1 µM); 0.417 with Linifanib + Pictilisib (first compound 0.3162 µM); 0.411 in the assay with Linifanib + Phenformin (first compound 0.03162 µM); 0.363 with Linifanib + Phenformin (first compound 0.1 µM); 0.438 with Linifanib + Phenformin (first compound 0.3162 µM). In addition, the relative viability stood at 1.27 in the assay with Linifanib + Lapatinib (first compound 0.03162 µM); 1.27 in the assay with Linifanib + Lapatinib (first compound 0.1 µM); 1.15 with Linifanib + Lapatinib (first compound 0.3162 µM); 0.909 with Linifanib + Vorinostat (first compound 0.03162 µM); 0.93 with Linifanib + Vorinostat (first compound 0.1 µM); 0.594 with Linifanib + Vorinostat (first compound 0.3162 µM).
In the case of SK-MES-1, the relative viability in the assay with Linifanib + Palbociclib (first compound 0.03162 µM) came out at 0.323; in the assay with Linifanib + Palbociclib (first compound 0.1 µM), 0.331; with Linifanib + Palbociclib (first compound 0.3162 µM), 0.336; in the assay with Linifanib + Alpelisib (first compound 0.03162 µM), 0.883; in the assay with Linifanib + Alpelisib (first compound 0.1 µM) it was 0.852; with Linifanib + Alpelisib (first compound 0.3162 µM) it was 0.885. The relative viability came out at 0.369 with Linifanib + Pictilisib (first compound 0.03162 µM); 0.338 with Linifanib + Pictilisib (first compound 0.1 µM); 0.398 with Linifanib + Pictilisib (first compound 0.3162 µM); 0.704 in the assay with Linifanib + Phenformin (first compound 0.03162 µM); 0.692 with Linifanib + Phenformin (first compound 0.1 µM); 0.653 with Linifanib + Phenformin (first compound 0.3162 µM). Further, the relative viability in the assay with Linifanib + Lapatinib (first compound 0.03162 µM) worked out at 0.456; in the assay with Linifanib + Lapatinib (first compound 0.1 µM) it was 0.534; with Linifanib + Lapatinib (first compound 0.3162 µM), 0.384; with Linifanib + Vorinostat (first compound 0.03162 µM), 1.13; in the assay with Linifanib + Vorinostat (first compound 0.1 µM), 1.05; in the assay with Linifanib + Vorinostat (first compound 0.3162 µM) it was 1.05.
On to NCI-H2009, for which the relative viability in the assay with Linifanib + Palbociclib (first compound 0.03162 µM) is 0.247; with Linifanib + Palbociclib (first compound 0.1 µM), 0.263; with Linifanib + Palbociclib (first compound 0.3162 µM) it was 0.25; with Linifanib + Alpelisib (first compound 0.03162 µM), 1.16; with Linifanib + Alpelisib (first compound 0.1 µM) it was 1.19; with Linifanib + Alpelisib (first compound 0.3162 µM), 1.08. The relative viability was 0.873 in the assay with Linifanib + Pictilisib (first compound 0.03162 µM); 0.973 with Linifanib + Pictilisib (first compound 0.1 µM); 0.835 with Linifanib + Pictilisib (first compound 0.3162 µM); 0.483 in the assay with Linifanib + Phenformin (first compound 0.03162 µM); 0.493 with Linifanib + Phenformin (first compound 0.1 µM); 0.459 with Linifanib + Phenformin (first compound 0.3162 µM). Besides, the relative viability with Linifanib + Lapatinib (first compound 0.03162 µM) was determined as 1.23; with Linifanib + Lapatinib (first compound 0.1 µM), 0.928; in the assay with Linifanib + Lapatinib (first compound 0.3162 µM), 0.941; with Linifanib + Vorinostat (first compound 0.03162 µM), 0.695; with Linifanib + Vorinostat (first compound 0.1 µM), 0.781; with Linifanib + Vorinostat (first compound 0.3162 µM), 0.743.
With COR-L23, the relative viability with Linifanib + Palbociclib (first compound 0.03162 µM) stood at 0.31; with Linifanib + Palbociclib (first compound 0.1 µM) it was 0.298; in the assay with Linifanib + Palbociclib (first compound 0.3162 µM) it was 0.273; in the assay with Linifanib + Alpelisib (first compound 0.03162 µM), 0.81; with Linifanib + Alpelisib (first compound 0.1 µM), 0.957; with Linifanib + Alpelisib (first compound 0.3162 µM) it was 0.732. In addition, the relative viability was 0.754 with Linifanib + Pictilisib (first compound 0.03162 µM); 0.717 with Linifanib + Pictilisib (first compound 0.1 µM); 0.686 with Linifanib + Pictilisib (first compound 0.3162 µM); 0.464 with Linifanib + Phenformin (first compound 0.03162 µM); 0.431 with Linifanib + Phenformin (first compound 0.1 µM); 0.399 with Linifanib + Phenformin (first compound 0.3162 µM). For the same cell line, the relative viability with Linifanib + Lapatinib (first compound 0.03162 µM) stood at 1.09; with Linifanib + Lapatinib (first compound 0.1 µM), 0.905; with Linifanib + Lapatinib (first compound 0.3162 µM) it was 0.921; with Linifanib + Vorinostat (first compound 0.03162 µM), 0.462; with Linifanib + Vorinostat (first compound 0.1 µM), 0.402; with Linifanib + Vorinostat (first compound 0.3162 µM), 0.384.

These data come from the supplement of paper PMC10307832.
